One test deals with DU-145. The test is described as follows: Antiproliferative activity against human DU145 cells. In kind it is functional, cell-based.
The next test concerns HL-60. The test is described as follows: Antiproliferative activity against human HL60 cells. In kind it is functional, cell-based.
The target in test [1] is Inosine-5'-monophosphate dehydrogenase 1 (Homo sapiens, UniProt P20839). The test is described as follows: Inhibition of IMPDH1 (unknown origin).
The subject of another test is K562. Briefly: Antiproliferative activity against human K562 cells. In kind it is functional, cell-based.
Test [2] addresses Inosine-5'-monophosphate dehydrogenase 2 (Homo sapiens, UniProt P12268). Briefly: Inhibition of IMPDH2 (unknown origin).
In a further test the test system is PC-3. The test is described as follows: Antiproliferative activity against human PC3 cells. In kind it is functional, cell-based.

pIC50, pKi: −log10 of the molar value.

Usually pIC50 stands for the IC50 on a negative log10 scale, so that one unit is a factor of ten. As usually defined, the pKi is −log10 of the Ki, conventionally taken in molar units. A high value points to a low Ki.

Chain of Inosine-5'-monophosphate dehydrogenase 1 (P20839 whole entry): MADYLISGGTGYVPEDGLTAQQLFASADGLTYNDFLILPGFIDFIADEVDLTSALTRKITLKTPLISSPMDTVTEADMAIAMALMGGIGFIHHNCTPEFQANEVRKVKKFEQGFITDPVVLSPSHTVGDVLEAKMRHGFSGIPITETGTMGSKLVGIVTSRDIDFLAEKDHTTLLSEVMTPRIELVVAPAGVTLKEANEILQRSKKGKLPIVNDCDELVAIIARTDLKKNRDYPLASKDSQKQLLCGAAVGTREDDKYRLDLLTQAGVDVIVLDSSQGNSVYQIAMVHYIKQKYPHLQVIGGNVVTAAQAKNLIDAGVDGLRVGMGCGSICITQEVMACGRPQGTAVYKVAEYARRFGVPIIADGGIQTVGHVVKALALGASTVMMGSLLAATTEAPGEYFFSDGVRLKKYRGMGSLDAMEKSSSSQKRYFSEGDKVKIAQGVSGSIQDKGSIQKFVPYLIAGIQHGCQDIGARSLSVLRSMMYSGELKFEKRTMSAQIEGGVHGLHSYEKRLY

`COC(=O)[C@H](CCSC)NC(=O)CC/C(C)=C/Cc1c(O)c2c(c(C)c1OC)COC2=O`: the results for the pIC50 in the test with DU-145, in the test on HL-60 and in the test on K562 were 5.06, 5.35 and 5.52, respectively. Moreover, the pKi was 5.66 in test [1] and 6.83 in test [2].
Consider `COc1c(C)c2c(c(O)c1C/C=C(\C)CCC(=O)N[C@@H](CCSC)C(=O)O)C(=O)OC2`, for which the pIC50 in the test on DU-145, with PC-3, in the test with HL-60 and in the test on K562 was less than 4.00 in each case. For the same compound, the pKi in test [1] was 5.29; in test [2], 6.87.
Take `COc1c(C)c2c(c(O)c1C/C=C(\C)CCC(=O)N[C@H](Cc1ccccc1)C(=O)NC[C@H]1O[C@@H](n3cnc4c(N)ncnc43)[C@H](O)[C@@H]1O)C(=O)OC2`: the pIC50 with DU-145, with PC-3, with HL-60 and in the test on K562 was less than 4.00 throughout. Moreover, the pKi in test [1] was 7.42; in test [2] it was 7.90.
As for `COc1c(C)c2c(c(O)c1C/C=C(\C)CCC(=O)N[C@@H](C(=O)NC[C@H]1O[C@@H](n3cnc4c(N)ncnc43)[C@H](O)[C@@H]1O)C(C)C)C(=O)OC2`, the pIC50 with DU-145, in the test with PC-3, in the test with HL-60 and in the test on K562 was less than 4.00 throughout. The pKi was 8.52 in test [1] and 7.06 in test [2].
Take `COc1c(C)c2c(c(O)c1C/C=C(\C)CCC(=O)N[C@@H](C(=O)O)C(C)C)C(=O)OC2`: the pIC50 with DU-145, in the test on PC-3, in the test with HL-60 and in the test with K562 was less than 4.00 in each case. The pKi in test [1] was 5.69; in test [2], 5.91.
For `COc1c(C)c2c(c(O)c1C/C=C(\C)CCC(=O)N[C@H](Cc1c[nH]c3ccccc13)C(=O)O)C(=O)OC2`, the pIC50 with DU-145, with PC-3, in the test with HL-60 and in the test on K562 was less than 4.00 each time. The figures for the pKi in test [1] and in test [2] were 7.49 and 6.76, respectively.
Turning to `COc1c(C)c2c(c(O)c1C/C=C(\C)CCC(=O)N[C@@H](Cc1ccccc1)C(=O)NC[C@H]1O[C@@H](n3cnc4c(N)ncnc43)[C@H](O)[C@@H]1O)C(=O)OC2`, the pIC50 with DU-145, with PC-3, in the test with HL-60 and in the test with K562 was less than 4.00 throughout. Also, the values for the pKi in test [1] and in test [2] were 6.59 and 6.73, respectively.
Consider `COc1c(C)c2c(c(O)c1C/C=C(\C)CCC(=O)NCC(=O)NC[C@H]1O[C@@H](n3cnc4c(N)ncnc43)[C@H](O)[C@@H]1O)C(=O)OC2`, for which the pIC50 with DU-145, in the test with PC-3, with HL-60 and with K562 was less than 4.00 each time. The pKi in test [1] is 6.59; in test [2] it was 6.73.
For the compound `COc1c(C)c2c(c(O)c1C/C=C(\C)CCC(=O)N[C@H](Cc1c[nH]c3ccccc13)C(=O)NC[C@H]1O[C@@H](n3cnc4c(N)ncnc43)[C@H](O)[C@@H]1O)C(=O)OC2`, the pIC50 in the test with DU-145, with PC-3, in the test with HL-60 and in the test on K562 was less than 4.00 each time. Also, the pKi in test [1] is 7.25; in test [2], 7.40.
Regarding `COC(=O)CNC(=O)CC/C(C)=C/Cc1c(O)c2c(c(C)c1OC)COC2=O`, the pIC50 with DU-145 was 5.51; in the test with PC-3, 4.10; in the test with HL-60, 4.66; in the test on K562, 4.80. Further, the results for the pKi in test [1] and in test [2] were 6.28 and 6.31, respectively.
As to `COC(=O)[C@@H](NC(=O)CC/C(C)=C/Cc1c(O)c2c(c(C)c1OC)COC2=O)C(C)C`, the pIC50 is 4.41 with DU-145, less than 4.00 with PC-3, 4.51 in the test on HL-60 and 5.08 with K562. The figures for the pKi in test [1] and in test [2] were 5.42 and 6.01, respectively.
In the case of `COc1c(C)c2c(c(O)c1C/C=C(\C)CCC(=O)NC[C@H]1O[C@@H](n3cnc4c(N)ncnc43)[C@H](O)[C@@H]1O)C(=O)OC2`, the pIC50 in the test with DU-145 is less than 4.00; with PC-3, less than 4.00; in the test on HL-60, less than 4.00; in the test on K562, 4.31. Besides, the figures for the pKi in test [1] and in test [2] were 6.58 and 7.08, respectively.
For the compound `COC(=O)[C@H](Cc1ccccc1)NC(=O)CC/C(C)=C/Cc1c(O)c2c(c(C)c1OC)COC2=O`, the pIC50 in the test with DU-145 was less than 4.00; with PC-3, less than 4.00; in the test with HL-60, 4.46; in the test on K562, 4.30. Besides, the results for the pKi in test [1] and in test [2] were 5.36 and 6.36, respectively.
For `COc1c(C)c2c(c(O)c1C/C=C(\C)CCC(=O)N1CCC[C@H]1C(=O)O)C(=O)OC2`, the pKi in test [1] was 6.04; in test [2], 6.28.
In the case of `COc1c(C)c2c(c(O)c1C/C=C(\C)CCC(=O)N[C@@H](Cc1c[nH]c3ccccc13)C(=O)O)C(=O)OC2`, the pIC50 in the test with DU-145, in the test on PC-3, with HL-60 and in the test on K562 was less than 4.00 in each case. Besides, the pKi in test [1] was 7.25; in test [2] it was 6.63.
Consider `COC(=O)[C@H](CO)NC(=O)CC/C(C)=C/Cc1c(O)c2c(c(C)c1OC)COC2=O`, for which the pIC50 in the test on DU-145 is 4.89; with PC-3, less than 4.00; in the test with HL-60, 4.74; in the test on K562 it was 5.38. In addition, the pKi is 5.99 in test [1] and 7.03 in test [2].
Consider `COc1c(C)c2c(c(O)c1C/C=C(\C)CCC(=O)N[C@H](C(=O)O)C(C)C)C(=O)OC2`, for which the pIC50 is less than 4.00 in the test with DU-145, less than 4.00 in the test with PC-3, 4.14 in the test on HL-60 and 4.26 with K562. Further, the pKi is 6.88 in test [1] and 6.76 in test [2].
As for `COc1c(C)c2c(c(O)c1C/C=C(\C)CCC(=O)N[C@H](C(=O)NC[C@H]1O[C@@H](n3cnc4c(N)ncnc43)[C@H](O)[C@@H]1O)C(C)C)C(=O)OC2`, the pIC50 in the test on DU-145, in the test with PC-3, with HL-60 and in the test on K562 was less than 4.00 each time. Moreover, the values for the pKi in test [1] and in test [2] were 7.72 and 7.15, respectively.
On to `COc1c(C)c2c(c(O)c1C/C=C(\C)CCC(=O)N[C@H](Cc1ccccc1)C(=O)O)C(=O)OC2`, for which the pIC50 in the test on DU-145 was 5.00; with PC-3, less than 4.00; in the test with HL-60 it was less than 4.00; in the test on K562, less than 4.00. The pKi in test [1] is 5.37; in test [2] it was 5.57.
As for `COC(=O)[C@@H](Cc1c[nH]c2ccccc12)NC(=O)CC/C(C)=C/Cc1c(O)c2c(c(C)c1OC)COC2=O`, the pIC50 in the test with DU-145 was less than 4.00; in the test with PC-3, less than 4.00; in the test with HL-60, 4.46; with K562 it was 4.85. For the same compound, the pKi was 6.84 in test [1] and 6.36 in test [2].
Regarding `COc1c(C)c2c(c(O)c1C/C=C(\C)CCC(=O)N[C@@H](Cc1ccc(O)cc1)C(=O)O)C(=O)OC2`, the pIC50 in the test on DU-145, with PC-3, in the test on HL-60 and with K562 was less than 4.00 each time. Further, the pKi is 5.77 in test [1] and 6.67 in test [2].
With `COC(=O)[C@@H](Cc1ccccc1)NC(=O)CC/C(C)=C/Cc1c(O)c2c(c(C)c1OC)COC2=O`, the pIC50 in the test with DU-145 was 5.00; with PC-3 it was 4.15; in the test on HL-60, 4.39; in the test with K562, 4.54. Besides, the pKi in test [1] is 5.26; in test [2], 5.62.
For the compound `COc1c(C)c2c(c(O)c1C/C=C(\C)CCC(=O)N[C@@H](Cc1c[nH]c3ccccc13)C(=O)NC[C@H]1O[C@@H](n3cnc4c(N)ncnc43)[C@H](O)[C@@H]1O)C(=O)OC2`, the pIC50 in the test with DU-145, in the test on PC-3, with HL-60 and in the test on K562 was less than 4.00 each time. Moreover, the pKi was 6.79 in test [1] and 6.73 in test [2].
On to `COc1c(C)c2c(c(O)c1C/C=C(\C)CCC(=O)N[C@@H](Cc1ccccc1)C(=O)O)C(=O)OC2`, for which the pIC50 with DU-145, with PC-3, in the test on HL-60 and with K562 was less than 4.00 in each case. The figures for the pKi in test [1] and in test [2] were 6.07 and 6.79, respectively.
In the case of `COC(=O)[C@H](NC(=O)CC/C(C)=C/Cc1c(O)c2c(c(C)c1OC)COC2=O)C(C)C`, the pIC50 in the test on DU-145 is 4.80; in the test with PC-3, 4.21; in the test with HL-60, 4.44; in the test with K562, 4.54. In addition, the results for the pKi in test [1] and in test [2] were 5.11 and 5.71, respectively.
For the compound `COC(=O)[C@H](Cc1ccc(O)cc1)NC(=O)CC/C(C)=C/Cc1c(O)c2c(c(C)c1OC)COC2=O`, the negative logarithm of the IC50 (pIC50) with DU-145 is 5.20; in the test on PC-3 it was 4.96; with HL-60, 5.33; in the test with K562 it was 5.17. The pKi in test [1] is 5.74; in test [2], 6.44.
On to `COc1c(C)c2c(c(O)c1C/C=C(\C)CCC(=O)N[C@@H](CO)C(=O)O)C(=O)OC2`, for which the pIC50 with DU-145, in the test with PC-3, in the test on HL-60 and in the test with K562 was less than 4.00 throughout. For the same compound, the pKi in test [1] and in test [2] was 5.55 in each case.
For the compound `COc1c(C)c2c(c(O)c1C/C=C(\C)CCC(=O)NCC(=O)O)C(=O)OC2`, the pIC50 in the test with DU-145 is less than 4.00; in the test on PC-3, less than 4.00; with HL-60, less than 4.00; with K562, 5.00. In addition, the pKi is 6.05 in test [1] and 6.49 in test [2].
Turning to `COC(=O)[C@H](Cc1c[nH]c2ccccc12)NC(=O)CC/C(C)=C/Cc1c(O)c2c(c(C)c1OC)COC2=O`, the pIC50 is 5.01 in the test with DU-145, less than 4.00 with PC-3, 5.08 in the test on HL-60 and 5.21 with K562. The values for the pKi in test [1] and in test [2] were 6.13 and 6.63, respectively.

Source of the values: ChEMBL document CHEMBL3097995, “NAD-based inhibitors with anticancer potential” (Bioorg Med Chem Lett, 2014).
